# Data reported in ChEMBL document CHEMBL1201862, “PubChem BioAssay data set” (2004).
#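 Growth conditions: 96-well plates. Treatment: test compound, 48 hours, 5 concentrations. Analysis: linear interpolation between bracketing concentrations; unreached endpoints set to highest concentration. GI50 = concentration required for 50% inhibition of growth.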 Activity calls are given as the source filed them. No stated cut-off is given here; in the data, active = GI50 up to about 1.1 µM and inactive = higher.
# Key:
# Experiment in all cases: NCI anticancer screen, dose series, 48 h
# DMS-273 = system: DMS-273
# A498 = system: A498
# SW-620 = system: SW-620
# CAKI-1 = system: CAKI-1
# MOLT-4 = system: MOLT-4
# HCT-116 = system: HCT-116
# CCRF-CEM = system: CCRF-CEM
# OVCAR-3 = system: OVCAR-3
# OVCAR-5 = system: OVCAR-5
# HCT-15 = system: HCT-15
# UACC-62 = system: UACC-62
# HOP-62 = system: HOP-62
# K562 = system: K562
# NCI-H23 = system: NCI-H23
# TK-10 = system: TK-10
# SNB-19 = system: SNB-19
# HL-60 = system: HL-60
# DMS-114 = system: DMS-114
# Hs-578T = system: Hs-578T
# MDA-N = system: MDA-N
Compound,GI50 (DMS-273),GI50 (A498),GI50 (SW-620),GI50 (CAKI-1),GI50 (MOLT-4),GI50 (HCT-116),GI50 (CCRF-CEM),GI50 (OVCAR-3),GI50 (OVCAR-5),GI50 (HCT-15),GI50 (UACC-62),GI50 (HOP-62),GI50 (K562),GI50 (NCI-H23),GI50 (TK-10),GI50 (SNB-19),GI50 (HL-60),GI50 (DMS-114),GI50 (Hs-578T),GI50 (MDA-N)
CCOC(=O)c1cc(=O)n(C)c(=O)n1C,> 100 µM (inactive),> 100 µM (inactive),> 100 µM (inactive),> 100 µM (inactive),> 100 µM (inactive),> 100 µM (inactive),> 100 µM (inactive),> 100 µM (inactive),> 100 µM (inactive),> 100 µM,> 100 µM (inactive),> 100 µM (inactive),> 100 µM (inactive),> 100 µM (inactive),> 100 µM (inactive),> 100 µM (inactive),–,–,–,–
NNC(=S)N/N=C/C(=C/Nc1ccccc1)[N+](=O)[O-],–,–,> 100 µM (inactive),> 100 µM (inactive),–,> 100 µM (inactive),–,> 100 µM (inactive),> 100 µM (inactive),–,> 100 µM (inactive),> 100 µM (inactive),10 µM (inactive),> 100 µM (inactive),> 100 µM (inactive),> 100 µM (inactive),> 100 µM (inactive),> 100 µM (inactive),–,–
N#CC(C(=N/NC(N)=S)/C(=N/NC(N)=S)C(C#N)c1ccc(Cl)cc1)c1ccc(Cl)cc1 (stereo unspecified),> 100 µM (inactive),> 100 µM (inactive),41.7 µM (inactive),–,22.7 µM (inactive),> 100 µM (inactive),22.6 µM (inactive),80 µM (inactive),> 100 µM (inactive),83.8 µM,59.6 µM (inactive),> 100 µM (inactive),34.9 µM (inactive),65.5 µM (inactive),> 100 µM (inactive),> 100 µM (inactive),–,> 100 µM (inactive),–,–
COc1ccc(C(C)Nc2cc(OC)c(OC)c(OC)c2)cc1 (stereo unspecified),1.82 µM (inactive),4.45 µM (inactive),2.88 µM (inactive),4.23 µM (inactive),4.61 µM (inactive),3.58 µM (inactive),3.29 µM (inactive),2.69 µM (inactive),29.5 µM (inactive),3 µM,2.91 µM (inactive),2.88 µM (inactive),2.19 µM (inactive),3.72 µM (inactive),> 29.7 µM (inactive),> 25.2 µM (inactive),1.94 µM (inactive),–,–,–
COc1ccc(Nc2nc3c(N)cc(C(F)(F)F)cc3nc2-c2ccccc2)cc1OC,33.5 µM (inactive),31.8 µM (inactive),57.4 µM (inactive),22.6 µM (inactive),66.7 µM (inactive),25.6 µM (inactive),> 100 µM (inactive),18.8 µM (inactive),64.7 µM (inactive),33.4 µM,19.7 µM (inactive),24.9 µM (inactive),63 µM (inactive),32.9 µM (inactive),21.3 µM (inactive),19.8 µM (inactive),8.63 µM (inactive),–,–,–
Nc1ncnc2c1ncn2C1OC(CO)C(O)C1NS(=O)(=O)c1ccccc1 (stereo unspecified),–,> 100 µM (inactive),> 100 µM (inactive),> 100 µM (inactive),> 100 µM (inactive),> 100 µM (inactive),> 100 µM (inactive),> 100 µM (inactive),> 100 µM (inactive),> 100 µM,> 100 µM (inactive),> 100 µM (inactive),> 100 µM (inactive),> 100 µM (inactive),> 100 µM (inactive),> 100 µM (inactive),> 100 µM (inactive),–,> 100 µM (inactive),> 100 µM (inactive)
O=C1OCC2C1C1c3ccccc3C(O)c3ccccc3C21 (stereo unspecified),–,> 100 µM (inactive),> 100 µM (inactive),> 100 µM (inactive),> 100 µM (inactive),> 100 µM (inactive),> 100 µM (inactive),> 100 µM (inactive),> 100 µM (inactive),> 100 µM,> 100 µM (inactive),> 100 µM (inactive),> 100 µM (inactive),> 100 µM (inactive),> 100 µM (inactive),–,> 100 µM (inactive),> 100 µM (inactive),–,–
COC(=O)C(=O)C(C(=O)C(=O)Nc1cc(Cl)c(Cl)cc1Cl)c1nc2ccc([N+](=O)[O-])cc2nc1O (stereo unspecified),> 100 µM (inactive),–,> 100 µM (inactive),60.8 µM (inactive),> 100 µM (inactive),> 100 µM (inactive),> 100 µM (inactive),–,> 100 µM (inactive),> 100 µM,> 100 µM (inactive),–,> 100 µM (inactive),> 100 µM (inactive),> 100 µM (inactive),> 100 µM (inactive),–,> 100 µM (inactive),–,–
COc1ccc(/C=C2\OC(=O)C(Cl)=C2c2ccc(OC)c(Cl)c2)cc1,–,17.7 µM (inactive),36.6 µM (inactive),21.9 µM (inactive),48.9 µM (inactive),39.1 µM (inactive),29.2 µM (inactive),20 µM (inactive),24.6 µM (inactive),45 µM,26.5 µM (inactive),15.2 µM (inactive),56.1 µM (inactive),20 µM (inactive),21.7 µM (inactive),34.1 µM (inactive),47.1 µM (inactive),–,20.9 µM (inactive),17.7 µM (inactive)
CC(C)NC(=O)OCc1c(COC(=O)NC(C)C)c(-c2ccc[n+](COC(=O)CC(C)(C)C)c2)n2c1CCC2,–,> 100 µM (inactive),> 100 µM (inactive),38.5 µM (inactive),> 100 µM (inactive),> 100 µM (inactive),> 100 µM (inactive),> 100 µM (inactive),> 100 µM (inactive),> 100 µM,39.9 µM (inactive),56.6 µM (inactive),> 100 µM (inactive),48.6 µM (inactive),> 100 µM (inactive),> 100 µM (inactive),> 100 µM (inactive),–,87.7 µM (inactive),> 100 µM (inactive)
CC(C)CCC[C@@H](C)C1CCC2[C@@H]3CCC4CC(CCC=C(c5cc(Cl)c(OC(=O)c6ccccc6)c(C(=O)O)c5)c5cc(Cl)c(OC(=O)c6ccccc6)c(C(=O)O)c5)CC[C@]4(C)C3CC[C@@]21C (stereo partly specified),–,52.5 µM (inactive),> 100 µM (inactive),> 100 µM (inactive),> 100 µM (inactive),> 100 µM (inactive),> 100 µM (inactive),74.8 µM (inactive),> 100 µM (inactive),46.1 µM,> 100 µM (inactive),> 100 µM (inactive),> 100 µM (inactive),> 100 µM (inactive),52.2 µM (inactive),> 100 µM (inactive),> 100 µM (inactive),–,> 100 µM (inactive),> 100 µM (inactive)
Nc1ccc(CCN2CCN(CCCc3ccccc3)CC2)cc1,–,> 100 µM (inactive),> 100 µM (inactive),> 100 µM (inactive),50.4 µM (inactive),31.9 µM (inactive),48.2 µM (inactive),48.1 µM (inactive),> 100 µM (inactive),21.7 µM,> 100 µM (inactive),> 100 µM (inactive),24.2 µM (inactive),79.4 µM (inactive),> 100 µM (inactive),> 100 µM (inactive),26.6 µM (inactive),–,> 100 µM (inactive),> 100 µM (inactive)
OCC(O)CNc1ncnc2ccccc12 (stereo unspecified),–,> 100 µM (inactive),> 100 µM (inactive),> 100 µM (inactive),> 100 µM (inactive),> 100 µM (inactive),> 100 µM (inactive),> 100 µM (inactive),> 100 µM (inactive),> 100 µM,> 100 µM (inactive),> 100 µM (inactive),> 100 µM (inactive),> 100 µM (inactive),> 100 µM (inactive),> 100 µM (inactive),> 100 µM (inactive),–,> 100 µM (inactive),> 100 µM (inactive)
COc1ccc(-c2cc(-c3ccc(Nc4ccnc5cc(Cl)ccc45)cc3)[nH]c(=O)c2C#N)c2ccccc12,–,23.3 µM (inactive),3.51 µM (inactive),9.46 µM (inactive),2.13 µM (inactive),2.16 µM (inactive),1.09 µM (active),2.18 µM (inactive),41.3 µM (inactive),8.45 µM,19.5 µM (inactive),14.5 µM (inactive),2.37 µM (inactive),20.3 µM (inactive),8.63 µM (inactive),3.39 µM (inactive),3.03 µM (inactive),–,2.62 µM (inactive),2.01 µM (inactive)
Cc1cc(C)c2c(O)cc(-c3cccc(F)c3)nc2n1,–,0.274 µM (active),< 0.0194 µM (active),0.0536 µM (active),0.22 µM (active),< 0.0186 µM (active),0.172 µM (active),0.025 µM (active),0.399 µM (active),0.0495 µM,< 0.0284 µM (active),0.158 µM (active),< 0.0175 µM (active),0.294 µM (active),23.7 µM (inactive),0.136 µM (active),0.0312 µM (active),–,0.0614 µM (active),0.0116 µM (active)
O=C(O)CCNCC(=O)O,–,> 100 µM (inactive),> 100 µM (inactive),> 100 µM (inactive),> 100 µM (inactive),> 100 µM (inactive),> 100 µM (inactive),> 100 µM (inactive),> 100 µM (inactive),> 100 µM,> 100 µM (inactive),> 100 µM (inactive),> 100 µM (inactive),> 100 µM (inactive),> 100 µM (inactive),> 100 µM (inactive),> 100 µM (inactive),–,> 100 µM (inactive),> 100 µM (inactive)
